Data set [1] in a line: inhibitors of intracellular T. cruzi replication, confirmation, NIH3T3 host cells, beta-gal luminescence (AID 2044).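 Note: intracellular parasites grown in NIH/3T3 mouse fibroblasts as host cells; luminescent beta-galactosidase reporter signal from transgenic T. cruzi replicating inside host cells; inhibitors lower the luminescence signal.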 Format: functional, cell-based.
Data set [2] can be described thus: cytotoxicity toward NIH3T3 fibroblasts, dose response, counter-screen, cell-based, ATP luminescence, mouse fibroblasts (AID 2010).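 Note: cells exposed to compound for about 90 hours before reading.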 Format: functional. (The purpose of a counterscreen is to sort out artefacts and off-target activity.)
In another data set the target is T1, Cytochrome P450 1A2 (Homo sapiens, UniProt P05177).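 Note: PubChem cytochrome P450 panel assay, CYP1A2 panel member.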
T1 sequence (P05177 whole entry): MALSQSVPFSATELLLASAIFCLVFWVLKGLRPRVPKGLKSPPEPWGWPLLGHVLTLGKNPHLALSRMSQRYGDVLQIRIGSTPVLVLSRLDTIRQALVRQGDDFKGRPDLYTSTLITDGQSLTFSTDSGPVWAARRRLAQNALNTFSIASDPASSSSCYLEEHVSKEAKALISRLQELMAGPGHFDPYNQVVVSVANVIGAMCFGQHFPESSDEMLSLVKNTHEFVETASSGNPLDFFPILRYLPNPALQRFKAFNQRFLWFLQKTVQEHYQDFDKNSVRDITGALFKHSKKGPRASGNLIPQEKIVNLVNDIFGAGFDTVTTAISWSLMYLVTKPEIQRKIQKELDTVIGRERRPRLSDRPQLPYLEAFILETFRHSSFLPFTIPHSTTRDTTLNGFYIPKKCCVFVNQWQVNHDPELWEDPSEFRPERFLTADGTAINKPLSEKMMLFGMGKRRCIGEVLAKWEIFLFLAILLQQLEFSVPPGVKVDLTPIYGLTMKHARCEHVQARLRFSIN

Another data set deals with Cytochrome P450 2C9 (Homo sapiens, UniProt P11712).
The target of a further data set is Cytochrome P450 3A4 (Homo sapiens, UniProt P08684).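 Note: CYP3A4 tested as one member of a cytochrome P450 panel screen.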
Data set [3] has as its target T2, Ubiquitin-conjugating enzyme E2 N (Homo sapiens, UniProt P61088).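 Note: Dose-response confirmation in a TR-FRET assay detecting UBC13-driven polyubiquitin chain formation, inhibition measured.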
T2 sequence (P61088 whole entry): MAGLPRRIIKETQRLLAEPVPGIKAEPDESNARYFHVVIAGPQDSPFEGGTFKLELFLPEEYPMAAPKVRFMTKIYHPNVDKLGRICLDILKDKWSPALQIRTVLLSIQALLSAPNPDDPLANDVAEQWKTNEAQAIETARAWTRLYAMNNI
Format: functional.

For data set [4], the target named is T3, Replicative DNA helicase DnaB (Mycobacterium tuberculosis, UniProt P9WMR3).
T3 sequence (P9WMR3 whole entry): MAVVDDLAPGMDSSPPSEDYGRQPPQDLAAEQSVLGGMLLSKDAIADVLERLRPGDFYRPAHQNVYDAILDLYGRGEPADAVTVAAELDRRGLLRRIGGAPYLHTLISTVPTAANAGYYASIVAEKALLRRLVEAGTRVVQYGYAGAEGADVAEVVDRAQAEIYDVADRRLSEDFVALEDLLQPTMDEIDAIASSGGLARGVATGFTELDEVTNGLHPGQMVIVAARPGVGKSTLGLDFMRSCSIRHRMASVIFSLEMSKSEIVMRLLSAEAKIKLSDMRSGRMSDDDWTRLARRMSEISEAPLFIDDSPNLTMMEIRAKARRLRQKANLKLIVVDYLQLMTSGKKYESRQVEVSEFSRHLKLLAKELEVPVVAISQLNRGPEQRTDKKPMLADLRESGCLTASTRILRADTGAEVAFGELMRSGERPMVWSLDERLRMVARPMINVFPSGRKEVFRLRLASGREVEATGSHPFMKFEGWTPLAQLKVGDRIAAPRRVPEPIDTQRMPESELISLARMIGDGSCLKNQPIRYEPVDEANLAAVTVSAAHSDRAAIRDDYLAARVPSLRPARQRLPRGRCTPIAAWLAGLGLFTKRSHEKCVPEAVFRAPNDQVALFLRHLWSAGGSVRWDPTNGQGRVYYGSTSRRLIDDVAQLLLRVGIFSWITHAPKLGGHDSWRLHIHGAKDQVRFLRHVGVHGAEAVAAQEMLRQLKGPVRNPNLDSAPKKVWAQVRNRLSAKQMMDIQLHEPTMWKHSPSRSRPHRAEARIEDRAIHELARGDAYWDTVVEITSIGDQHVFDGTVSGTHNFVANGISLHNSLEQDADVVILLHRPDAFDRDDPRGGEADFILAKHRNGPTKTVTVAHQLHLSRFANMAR
The data set is described as follows: DnaB intein splicing inhibitors, dose response, biochemical, cell-free fluorescence (AID 449749). Format: functional.

A further data set has as its target T4, Protein RecA (Mycobacterium tuberculosis, UniProt P9WHJ3).
T4 sequence (P9WHJ3 whole entry): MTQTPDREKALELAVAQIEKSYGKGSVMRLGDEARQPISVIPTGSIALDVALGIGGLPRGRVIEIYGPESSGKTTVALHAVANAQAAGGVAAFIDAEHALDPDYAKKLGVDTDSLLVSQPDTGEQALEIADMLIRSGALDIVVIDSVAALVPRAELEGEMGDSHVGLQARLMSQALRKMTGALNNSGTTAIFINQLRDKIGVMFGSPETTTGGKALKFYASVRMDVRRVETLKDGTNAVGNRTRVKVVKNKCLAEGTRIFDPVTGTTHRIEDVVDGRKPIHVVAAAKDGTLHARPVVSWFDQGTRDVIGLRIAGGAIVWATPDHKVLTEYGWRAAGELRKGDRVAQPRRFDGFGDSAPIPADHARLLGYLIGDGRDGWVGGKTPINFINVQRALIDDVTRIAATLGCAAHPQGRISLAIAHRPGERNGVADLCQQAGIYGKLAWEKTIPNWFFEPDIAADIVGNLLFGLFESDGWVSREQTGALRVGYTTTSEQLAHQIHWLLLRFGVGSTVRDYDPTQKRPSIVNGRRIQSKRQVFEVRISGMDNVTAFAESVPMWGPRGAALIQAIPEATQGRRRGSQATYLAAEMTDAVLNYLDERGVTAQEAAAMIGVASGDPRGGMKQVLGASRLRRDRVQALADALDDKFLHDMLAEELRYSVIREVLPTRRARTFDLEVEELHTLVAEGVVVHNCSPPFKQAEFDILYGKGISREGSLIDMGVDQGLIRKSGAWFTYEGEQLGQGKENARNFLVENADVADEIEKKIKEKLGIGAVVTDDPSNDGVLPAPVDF
The data set is described as follows: Fluorescence Cell-Free Homogeneous Dose Retest to Identify Inhibitors of RecA-Intein Splicing Activity. [Related pubchem assays (depositor defined):AID2097, AID2223, AID489010, AID492950]. Format: functional.

Data set [5] is described as follows: HeLa cell cytotoxicity, dose response, cytotoxicity control for MgcRacGAP inhibitor project (AID 624300). Format: functional.
In another data set the target is Cytochrome P450 2C19 (Homo sapiens, UniProt P33261). The data set is described as follows: Cytochrome panel assay with activity outcomes. Panel member name: p450-cyp2c19 Compounds with AC50 equal or less than 10 uM are considered active. Format: functional.
A short description of data set [6]: growth suppression of PTEN-null colon cells, dose response, cell-based, HCT116 PTEN knockout (AID 1047).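 Note: HCT116 colon tumor cells with PTEN knocked out; cells exposed to compound for 60 hours before readout; potency for loss of cell viability measured by luminescence.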 Format: functional.
The nature of data set [7]: growth suppression of beta-catenin-knockout colon cells, dose response, cell-based, HCT116, human colon tumor (AID 1045).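 Note: HCT116 colon tumor cells with beta catenin knocked out; cells exposed to compound for 60 hours.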 Format: functional.
Data set [8] is described as follows: Luminescence Cell-Based Dose Retest to Confirm Inhibitors of Cancer Stem Cells. [Related pubchem assays (depositor defined):AID2717, AID2721]. Format: functional. The conditions noted are these: Homo sapiens.
For data set [9], the target named is T5, Rac GTPase-activating protein 1 (Homo sapiens, UniProt Q9H0H5).
T5 sequence (Q9H0H5 whole entry): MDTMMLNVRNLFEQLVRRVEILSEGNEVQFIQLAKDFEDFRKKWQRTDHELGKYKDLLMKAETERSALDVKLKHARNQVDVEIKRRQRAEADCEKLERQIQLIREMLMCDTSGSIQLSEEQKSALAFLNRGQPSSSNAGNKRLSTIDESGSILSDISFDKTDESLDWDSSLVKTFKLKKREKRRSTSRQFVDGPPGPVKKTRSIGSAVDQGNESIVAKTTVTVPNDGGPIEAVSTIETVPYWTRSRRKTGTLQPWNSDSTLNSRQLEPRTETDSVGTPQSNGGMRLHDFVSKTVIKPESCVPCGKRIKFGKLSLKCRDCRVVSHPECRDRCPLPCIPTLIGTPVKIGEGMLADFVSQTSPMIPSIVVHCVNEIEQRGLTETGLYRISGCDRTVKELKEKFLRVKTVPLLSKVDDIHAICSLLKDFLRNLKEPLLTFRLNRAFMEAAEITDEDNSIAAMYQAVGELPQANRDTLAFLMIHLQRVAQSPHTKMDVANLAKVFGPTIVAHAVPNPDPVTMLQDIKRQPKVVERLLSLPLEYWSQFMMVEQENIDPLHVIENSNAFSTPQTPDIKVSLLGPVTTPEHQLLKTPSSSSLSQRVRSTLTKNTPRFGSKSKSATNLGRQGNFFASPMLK
In words: MgcRacGAP GTPase-activating activity inhibitors, confirmation, biochemical, ADP Hunter fluorescence, primary and confirmatory (AID 624330). Format: functional.

Activity calls are given as the source filed them. Bounds are passed on as bounds.

Sequence of Cytochrome P450 2C9 (P11712 whole entry): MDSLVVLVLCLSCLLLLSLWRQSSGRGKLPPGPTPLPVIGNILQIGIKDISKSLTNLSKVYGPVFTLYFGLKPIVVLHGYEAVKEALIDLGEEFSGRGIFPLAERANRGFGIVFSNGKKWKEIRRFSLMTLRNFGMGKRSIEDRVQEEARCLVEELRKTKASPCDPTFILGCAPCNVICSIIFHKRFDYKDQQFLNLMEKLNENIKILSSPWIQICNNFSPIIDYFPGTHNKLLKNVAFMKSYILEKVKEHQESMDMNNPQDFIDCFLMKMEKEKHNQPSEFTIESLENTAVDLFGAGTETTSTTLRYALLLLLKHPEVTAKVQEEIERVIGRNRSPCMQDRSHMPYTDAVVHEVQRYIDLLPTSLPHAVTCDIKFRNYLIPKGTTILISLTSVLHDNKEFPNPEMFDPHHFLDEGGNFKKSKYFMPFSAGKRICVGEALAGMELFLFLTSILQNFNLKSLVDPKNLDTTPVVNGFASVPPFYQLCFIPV
Sequence of Cytochrome P450 2C19 (P33261 whole entry): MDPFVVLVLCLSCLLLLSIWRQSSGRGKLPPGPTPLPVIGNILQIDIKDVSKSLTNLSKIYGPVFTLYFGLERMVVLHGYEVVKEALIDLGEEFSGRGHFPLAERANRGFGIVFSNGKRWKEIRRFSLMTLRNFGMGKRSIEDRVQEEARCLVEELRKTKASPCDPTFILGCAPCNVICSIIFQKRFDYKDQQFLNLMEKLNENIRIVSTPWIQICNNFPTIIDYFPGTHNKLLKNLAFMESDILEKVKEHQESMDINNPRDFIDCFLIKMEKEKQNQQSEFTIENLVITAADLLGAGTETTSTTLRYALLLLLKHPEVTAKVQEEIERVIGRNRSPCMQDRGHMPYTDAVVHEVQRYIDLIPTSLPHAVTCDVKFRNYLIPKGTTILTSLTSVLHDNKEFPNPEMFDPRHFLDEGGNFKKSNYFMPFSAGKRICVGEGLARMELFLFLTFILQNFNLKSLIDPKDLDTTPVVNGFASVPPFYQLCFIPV
Sequence of Cytochrome P450 3A4 (P08684 whole entry): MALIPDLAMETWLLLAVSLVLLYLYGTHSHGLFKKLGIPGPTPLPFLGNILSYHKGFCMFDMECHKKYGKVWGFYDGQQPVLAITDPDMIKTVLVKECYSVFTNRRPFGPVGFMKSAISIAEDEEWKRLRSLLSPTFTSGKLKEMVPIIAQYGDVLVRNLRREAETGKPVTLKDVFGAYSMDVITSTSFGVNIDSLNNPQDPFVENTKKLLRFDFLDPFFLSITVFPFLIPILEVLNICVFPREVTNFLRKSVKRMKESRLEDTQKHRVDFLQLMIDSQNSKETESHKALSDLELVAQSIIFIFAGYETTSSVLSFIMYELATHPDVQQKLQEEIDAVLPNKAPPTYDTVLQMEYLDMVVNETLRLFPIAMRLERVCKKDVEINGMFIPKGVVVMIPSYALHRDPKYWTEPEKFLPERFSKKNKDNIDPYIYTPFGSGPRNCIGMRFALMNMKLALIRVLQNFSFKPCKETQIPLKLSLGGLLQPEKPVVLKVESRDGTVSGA

`Cc1sc(N/N=C/C=C/c2ccccc2)nc1-c1ccccc1`: the EC50 in [1] was 2.67 µM (active); in data set [2], 13.8 µM (active). Moreover, the AC50 on Cytochrome P450 1A2 is 3.55 µM (inconclusive); on Cytochrome P450 2C9, “inconclusive”.
Consider `COc1ncc2nc(-c3cn(C)c4ccccc34)c(=O)n(-c3ccccc3)c2n1`, for which the values for the AC50 on Cytochrome P450 1A2, on Cytochrome P450 3A4 and on Cytochrome P450 2C9 were 5.01 µM (inconclusive), 3.16 µM (inconclusive) and “inconclusive”, respectively.
As to `COc1cc2[nH]c3c(N4CCN(c5ccc(Cl)cc5)CC4)ncnc3c2cc1OC`, the IC50 in [3] is > 20 µM (inactive).
On the same count and under the same terms, under `CCn1c(=O)c(C(=O)NCCN2CCCCC2)c(O)c2ccccc21` stands > 20 µM (inactive).
Consider `COc1ccc(-c2nc3cnc(N4CCOCC4)nc3n(C[C@H]3CCCO3)c2=O)cc1`, for which the AC50 at Cytochrome P450 1A2 was 5.01 µM (inconclusive); on Cytochrome P450 2C9, “inconclusive”.
Consider `CCN(CC)S(=O)(=O)c1ccc(C(=O)NNC(=O)C2CCN(S(=O)(=O)c3ccc(Cl)cc3)CC2)cc1`, for which the IC50 in data set [3] was > 20 µM (inactive).
Turning to `CCN(Cc1ccccc1)C(c1ccc(C)cc1)c1nnnn1C(C)(C)CC` (stereo not drawn), the AC50 in data set [4] is 2.41 µM (active). Further, the EC50 at Protein RecA was > 380 µM (inactive). In [5], the CC50 was 100 µM (active).
In the case of `COc1ccc(C(=O)Nn2cnc3ccccc3c2=O)c(OC)c1`, the concentration at half-maximal activity (AC50) at Cytochrome P450 2C19 (read-out: AC50) is 17.8 µM (inconclusive); on Cytochrome P450 1A2 it was 11.2 µM (inconclusive); at Cytochrome P450 2C9, “inconclusive”.
Take `N#C/C(=C/c1cn(-c2ccccc2)nc1-c1cccc(OCc2ccccc2)c1)C(=O)NCCCn1ccnc1`: the EC50 in data set [1] was 1.44 µM (active); in data set [6], 23.8 µM (active); in [2], > 30 µM (not active); in data set [7] it was 22 µM (active). The half-maximal activity concentration (AC50) in data set [8] is 5.32 µM (active). Also, the IC50 in data set [3] is > 20 µM (inactive).
On to `NS(=O)(=O)c1cc(Br)c(/N=N\c2ccc(O)c3ncccc23)c(Br)c1`, for which the concentration at half-maximal activity (AC50) at Cytochrome P450 1A2 is 1.26 µM (inconclusive); on Cytochrome P450 2C9 it was “inconclusive”.
For the compound `Cc1ccc(C(=O)NC(=S)Nc2cc(C(F)(F)F)ccc2Cl)cc1`, the AC50 entry is “inconclusive” on Cytochrome P450 2C19, 0.562 µM (inconclusive) on Cytochrome P450 1A2 and “inconclusive” on Cytochrome P450 2C9.
For `CCC12CN3CC(CC)(CN(C1)C3c1cccnc1)C2=O` (stereo not drawn), the AC50 on Cytochrome P450 1A2 is 28.2 µM (inconclusive); on Cytochrome P450 3A4 it was 4.47 µM (inconclusive); at Cytochrome P450 2C9, “inconclusive”.
`Cc1nc(NC(=O)c2ccccc2)sc1-c1csc(Nc2ccc(Cl)cc2)n1`: the concentration at half-maximal activity (AC50) on Cytochrome P450 1A2 is 7.08 µM (inconclusive); on Cytochrome P450 2C9, “inconclusive”.
With `COc1ccc(CNCCc2ccc(Cl)cc2)c(OC)c1OC`, the concentration for a half-maximal effect (EC50) in data set [1] is 0.462 µM (active); in data set [2], > 60 µM (not active). Besides, in data set [5], the CC50 is 100 µM (active). Besides, the IC50 in [9] is 259 µM (active).

As usually defined, the EC50 is the concentration that produces a half-maximal response. What is called AC50 is the concentration at which the activity in the assay is half-maximal. Broadly, the IC50 is the concentration at which inhibition is half-maximal. The term CC50 denotes the concentration giving 50% cytotoxicity.

Values taken from ChEMBL document CHEMBL1201862, “PubChem BioAssay data set” (2004).
